# According to patent US20230085307A1, “PYRIDAZINONE COMPOUND AND HERBICIDE” (NISSAN CHEMICAL CORPORATION, priority 2019, published 2023):
# Tested on: blackgrass
# Assay: Test Example 5: herbicidal effect by foliage application, plastic box (Table 20, symbol J)
# Assay type: in vivo, blackgrass (Alopecurus myosuroides)
# Settings: foliage application, 320 g/ha, three weeks after application
# Summary of the method: (§1)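 Sow seeds spot-wise in sterilized diluvial soil; cover with ~1.5 cm soil. Grow 14 days in greenhouse, 25° C. to 30° C. Spray foliage with emulsion diluted to predetermined amount. Rate effect after 3 weeks.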
row,Structure (SMILES),"J: blackgrass, herbicidal effect grade"
1,CCOC(=O)Oc1c(C)nn(C)c(=O)c1-c1c(-c2ccccc2OC)sc2cc(F)ccc12 [3-024],4 (Herbicidal rate of 70% or more and less than 90%)
2,COc1ccccc1-c1sc2cc(OC(C)C)ccc2c1-c1c(O)c(C)nn(C)c1=O [3-101],5 (Herbicidal rate of 90% or more (almost completely withered))

# Tested on: persian speedwell
# Assay: Test Example 5: herbicidal effect by foliage application, plastic box (Table 20, symbol R)
# Assay type: in vivo, Persian speedwell (Veronica persica)
# Settings: foliage application, 320 g/ha, three weeks after application
# Summary of the method: as §1
row,Structure (SMILES),"R: persian speedwell, herbicidal effect grade"
1,CCOC(=O)Oc1c(C)nn(C)c(=O)c1-c1c(-c2ccccc2OC)sc2cc(F)ccc12 [3-024],1 (Herbicidal rate of 5% or more and less than 20%)
2,COc1ccccc1-c1sc2cc(OC(C)C)ccc2c1-c1c(O)c(C)nn(C)c1=O [3-101],5 (Herbicidal rate of 90% or more (almost completely withered))

# Tested on: barnyard grass
# Assay: Test Example 3: herbicidal effect by foliage application, Wagner pot (Table 18, symbol H)
# Assay type: in vivo, barnyard grass (Echinochloa crus-galli)
# Settings: 320 g/ha
# Summary of the method: (§2)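 Plants were sown in alluvial soil held under 0.1–0.5 cm standing water and grown 14 days in a greenhouse at 25–30 °C. An emulsifiable formulation, water-diluted to the set dose, was then sprayed onto the foliage, and effects were scored three weeks later using previously defined criteria.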
row,Structure (SMILES),herbicidal effect on barnyard grass (H)
1,COc1ccccc1-c1sc2cc(OC(C)C)ccc2c1-c1c(O)c(C)nn(C)c1=O [3-101],5 (Herbicidal rate of 90% or more (almost completely withered))

# Same assay, conditions: amount of applied herbicide 320 g/ha
row,Structure (SMILES),herbicidal effect on H: barnyard grass
1,CCOC(=O)Oc1c(C)nn(C)c(=O)c1-c1c(-c2ccccc2OC)sc2cc(F)ccc12 [3-024],5 (Herbicidal rate of 90% or more (almost completely withered))

# Tested on: redroot pigweed
# Assay: Test Example 5: herbicidal effect by foliage application, plastic box (Table 20, symbol N)
# Assay type: in vivo, redroot pigweed (Amaranthus retroflexus)
# Settings: foliage application, 320 g/ha, three weeks after application
# Summary of the method: as §1
row,Structure (SMILES),"N: redroot pigweed, herbicidal effect grade"
1,CCOC(=O)Oc1c(C)nn(C)c(=O)c1-c1c(-c2ccccc2OC)sc2cc(F)ccc12 [3-024],5 (Herbicidal rate of 90% or more (almost completely withered))
2,COc1ccccc1-c1sc2cc(OC(C)C)ccc2c1-c1c(O)c(C)nn(C)c1=O [3-101],5 (Herbicidal rate of 90% or more (almost completely withered))

# Tested on: green foxtail
# Assay: Test Example 5: herbicidal effect by foliage application, plastic box (Table 20, symbol G)
# Assay type: in vivo, green foxtail (Setaria viridis)
# Settings: foliage application, 320 g/ha, three weeks after application
# Summary of the method: as §1
row,Structure (SMILES),"G: green foxtail, herbicidal effect grade"
1,CCOC(=O)Oc1c(C)nn(C)c(=O)c1-c1c(-c2ccccc2OC)sc2cc(F)ccc12 [3-024],5 (Herbicidal rate of 90% or more (almost completely withered))
2,COc1ccccc1-c1sc2cc(OC(C)C)ccc2c1-c1c(O)c(C)nn(C)c1=O [3-101],5 (Herbicidal rate of 90% or more (almost completely withered))

# Tested on: barnyard grass
# Assay: Test Example 4: herbicidal effect by soil treatment (Table 19, symbol H)
# Assay type: in vivo, barnyard grass (Echinochloa crus-galli)
# Settings: amount of applied herbicide 320 g/ha
# Summary of the method: (§3)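 Applied as a water-diluted emulsion, the compound was sprayed onto soil covering newly sown seeds. Evaluation came three weeks after application, in a greenhouse held at 25° C. to 30° C.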
row,Structure (SMILES),"H: barnyard grass, herbicidal effect grade"
1,CCOC(=O)Oc1c(C)nn(C)c(=O)c1-c1c(-c2ccccc2OC)sc2cc(F)ccc12 [3-024],3 (Herbicidal rate of 40% or more and less than 70%)
2,COc1ccccc1-c1sc2cc(OC(C)C)ccc2c1-c1c(O)c(C)nn(C)c1=O [3-101],5 (Herbicidal rate of 90% or more (almost completely withered))

# Tested on: windgrass
# Assay: Test Example 4: herbicidal effect by soil treatment (Table 19, symbol L)
# Assay type: in vivo, windgrass (Apera spica-venti)
# Settings: amount of applied herbicide 320 g/ha
# Summary of the method: as §3
row,Structure (SMILES),"L: windgrass, herbicidal effect grade"
1,CCOC(=O)Oc1c(C)nn(C)c(=O)c1-c1c(-c2ccccc2OC)sc2cc(F)ccc12 [3-024],3 (Herbicidal rate of 40% or more and less than 70%)
2,COc1ccccc1-c1sc2cc(OC(C)C)ccc2c1-c1c(O)c(C)nn(C)c1=O [3-101],4 (Herbicidal rate of 70% or more and less than 90%)

# Tested on: chickweed
# Assay: Test Example 4: herbicidal effect by soil treatment (Table 19, symbol P)
# Assay type: in vivo, common chickweed (Stellaria media)
# Settings: amount of applied herbicide 320 g/ha
# Summary of the method: as §3
row,Structure (SMILES),"P: chickweed, herbicidal effect grade"
1,CCOC(=O)Oc1c(C)nn(C)c(=O)c1-c1c(-c2ccccc2OC)sc2cc(F)ccc12 [3-024],3 (Herbicidal rate of 40% or more and less than 70%)
2,COc1ccccc1-c1sc2cc(OC(C)C)ccc2c1-c1c(O)c(C)nn(C)c1=O [3-101],4 (Herbicidal rate of 70% or more and less than 90%)

# Tested on: late watergrass
# Assay: Test Example 1: herbicidal activity, application before weed generation under submerged conditions (Table 16, symbol A)
# Assay type: in vivo, late watergrass (Echinochloa oryzicola)
# Settings: amount of applied herbicide 320 g/ha
# Summary of the method: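 Alluvial soil was flooded to 4 cm depth, weed seeds were sown mixed and 2.5-leaf rice seedlings were transplanted. On sowing day, the compound's emulsion, diluted in water to a set dose, was applied to the water surface. Plants grew at 25–30 °C and were scored 0–5 after three weeks.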
row,Structure (SMILES),"Herbicidal effect, A: late watergrass"
1,CCOC(=O)Oc1c(C)nn(C)c(=O)c1-c1c(-c2ccccc2OC)sc2cc(F)ccc12 [3-024],3 (Herbicidal rate of 40% or more and less than 70%)
2,COc1ccccc1-c1sc2cc(OC(C)C)ccc2c1-c1c(O)c(C)nn(C)c1=O [3-101],5 (Herbicidal rate of 90% or more (almost completely withered))

# Tested on: oval-leafed pondweed
# Assay: Test Example 2: herbicidal activity, application during weed generation under submerged conditions (Table 17, symbol C)
# Assay type: in vivo, oval-leafed pondweed (Monochoria vaginalis)
# Settings: AAH 320 g/ha; application during weed generation, submerged conditions
# Summary of the method: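 Wagner pot, alluvial soil, 4 cm flood; mixed sowing of all species; greenhouse 25° C.–30° C. Emulsifiable formulation, water-diluted to predetermined dose, applied to paddy water at 1–2 leaf stage. Effect rated at 3 wk using the earlier test's scoring criteria.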
row,Structure (SMILES),"herbicidal effect rating, C: oval-leafed pondweed"
1,CCOC(=O)Oc1c(C)nn(C)c(=O)c1-c1c(-c2ccccc2OC)sc2cc(F)ccc12 [3-024],3 (Herbicidal rate of 40% or more and less than 70%)
2,COc1ccccc1-c1sc2cc(OC(C)C)ccc2c1-c1c(O)c(C)nn(C)c1=O [3-101],2 (Herbicidal rate of 20% or more and less than 40%)

# Tested on: blackgrass
# Assay: Test Example 4: herbicidal effect by soil treatment (Table 19, symbol J)
# Assay type: in vivo, blackgrass (Alopecurus myosuroides)
# Settings: amount of applied herbicide 320 g/ha
# Summary of the method: as §3
row,Structure (SMILES),"J: blackgrass, herbicidal effect grade"
1,CCOC(=O)Oc1c(C)nn(C)c(=O)c1-c1c(-c2ccccc2OC)sc2cc(F)ccc12 [3-024],1 (Herbicidal rate of 5% or more and less than 20%)
2,COc1ccccc1-c1sc2cc(OC(C)C)ccc2c1-c1c(O)c(C)nn(C)c1=O [3-101],4 (Herbicidal rate of 70% or more and less than 90%)

# Tested on: redroot pigweed
# Assay: Test Example 4: herbicidal effect by soil treatment (Table 19, symbol N)
# Assay type: in vivo, redroot pigweed (Amaranthus retroflexus)
# Settings: amount of applied herbicide 320 g/ha
# Summary of the method: as §3
row,Structure (SMILES),"N: redroot pigweed, herbicidal effect grade"
1,CCOC(=O)Oc1c(C)nn(C)c(=O)c1-c1c(-c2ccccc2OC)sc2cc(F)ccc12 [3-024],5 (Herbicidal rate of 90% or more (almost completely withered))
2,COc1ccccc1-c1sc2cc(OC(C)C)ccc2c1-c1c(O)c(C)nn(C)c1=O [3-101],4 (Herbicidal rate of 70% or more and less than 90%)

# Tested on: green foxtail
# Assay: Test Example 4: herbicidal effect by soil treatment (Table 19, symbol G)
# Assay type: in vivo, green foxtail (Setaria viridis)
# Settings: amount of applied herbicide 320 g/ha
# Summary of the method: as §3
row,Structure (SMILES),"G: green foxtail, herbicidal effect grade"
1,CCOC(=O)Oc1c(C)nn(C)c(=O)c1-c1c(-c2ccccc2OC)sc2cc(F)ccc12 [3-024],3 (Herbicidal rate of 40% or more and less than 70%)
2,COc1ccccc1-c1sc2cc(OC(C)C)ccc2c1-c1c(O)c(C)nn(C)c1=O [3-101],5 (Herbicidal rate of 90% or more (almost completely withered))

# Tested on: Chinese sprangletop
# Assay: Test Example 3: herbicidal effect by foliage application, Wagner pot (Table 18, symbol D)
# Assay type: in vivo, chinese sprangletop (Leptochloa chinensis)
# Settings: 320 g/ha
# Summary of the method: as §2
row,Structure (SMILES),herbicidal effect on Chinese sprangletop (D)
1,COc1ccccc1-c1sc2cc(OC(C)C)ccc2c1-c1c(O)c(C)nn(C)c1=O [3-101],3 (Herbicidal rate of 40% or more and less than 70%)

# Same assay, conditions: amount of applied herbicide 320 g/ha
row,Structure (SMILES),herbicidal effect on D: Chinese sprangletop
1,CCOC(=O)Oc1c(C)nn(C)c(=O)c1-c1c(-c2ccccc2OC)sc2cc(F)ccc12 [3-024],3 (Herbicidal rate of 40% or more and less than 70%)

# Tested on: southern crabgrass
# Assay: Test Example 5: herbicidal effect by foliage application, plastic box (Table 20, symbol F)
# Assay type: in vivo, southern crabgrass (Digitaria ciliaris)
# Settings: foliage application, 320 g/ha, three weeks after application
# Summary of the method: as §1
row,Structure (SMILES),"F: southern crabgrass, herbicidal effect grade"
1,CCOC(=O)Oc1c(C)nn(C)c(=O)c1-c1c(-c2ccccc2OC)sc2cc(F)ccc12 [3-024],1 (Herbicidal rate of 5% or more and less than 20%)
2,COc1ccccc1-c1sc2cc(OC(C)C)ccc2c1-c1c(O)c(C)nn(C)c1=O [3-101],5 (Herbicidal rate of 90% or more (almost completely withered))

# Tested on: southern crabgrass
# Assay: Test Example 4: herbicidal effect by soil treatment (Table 19, symbol F)
# Assay type: in vivo, southern crabgrass (Digitaria ciliaris)
# Settings: amount of applied herbicide 320 g/ha
# Summary of the method: as §3
row,Structure (SMILES),"F: southern crabgrass, herbicidal effect grade"
1,CCOC(=O)Oc1c(C)nn(C)c(=O)c1-c1c(-c2ccccc2OC)sc2cc(F)ccc12 [3-024],3 (Herbicidal rate of 40% or more and less than 70%)
2,COc1ccccc1-c1sc2cc(OC(C)C)ccc2c1-c1c(O)c(C)nn(C)c1=O [3-101],2 (Herbicidal rate of 20% or more and less than 40%)
